According to patent publication US6376666B1 (Nauchno-Issledovatelsky Institut Farmakologii Rossiiskoi …, priority 1994, dated 2002):
Where “and” joins values, the source holds several entries; their conditions need not be identical. Identical values can stand only once. Entries after “also recorded” stand apart in the source; their conditions may differ.

How the values were obtained:
Assay type in all cases: in vivo
[1] = system: calcium chloride arrhythmia; assay: calcium chloride arrhythmia in concious rats; settings: for ED50: Rattus norvegicus, iv, read-out: Calcium chloride arrhythmia ED50 (mean effective dose); for effect on death from lethal ventricular fibrillation, in words: injected 2 min prior calcium chloride
Description: In these experiments the outbred concious rats 180-200 g of weight were injected with 10% solution of calcium chloride in tail vein at dose range of 250-300 mg/kg.

[2] = system: Balb/c mice; assay: open-field test, Balb/c mice (passive type of emotional-stress reaction); set-up: key to Total activity: sum of all locomotor activity counts (crossings + rearings) in 3 min; settings: for Number of defecations / Peripheral activity (crossings) / Total activity / Central activity (crossings) / Vertical activity (rearings): M ± mx; for effect on the behavior (locomotor activity) of Balb/c mice in open-field test, in words: i.p., screening
Outline: (§1)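 Male mice, 20-22 g, dosed i.p. in water 30 min before a 3-min open-field test after 1 min in darkness; peripheral, central, rearing and total activity plus defecations recorded; Student t-test. Anxiolysis read as Balb/c activation, sedation as C57B1/6 inhibition.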

[3] = system: ventricular disturbances of heart rhythm; assay: arrhythmia in concious dogs according to Harris; settings: for antiarrhythmic effect, in words: concious dogs with ventricular disturbances of heart rhythm; for antiarrhythmic effect, in words / effect on heart rate, in words / tolerability / side effects, in words: i.v.; for % ectopic contractions, change vs basal level / Heart rate, change vs basal level / effect on heart rate, in words / tolerability / side effects, in words: concious dogs; for % ectopic contractions, change vs basal level / Heart rate, change vs basal level: 2 mg/kg i.v.; for % of the ectopic contractions / heart rate: concious dogs according to Harris, compound XX 1.0 mg/kg i.v., individual dogs
Description: The arrhythmia in concious dogs according to Harris. The experiments were conducted in mongrel dogs of either sex weighing 9-14 kg. Under anesthesia (40 mg/kg of nembutal i.v.) and artificial respiration the two-step occlusion of the left anterior descending coronary artery was performed. The constant ECG disturbances of the heart rhythm were recorded after 24 hours. […] T-Student' test was used for statistical calculation.

[4] = system: C57B1/6 mice; assay: open-field test, C57B1/6 mice (active type of emotional-stress reaction); set-up: key to Total activity: sum of all locomotor activity counts (crossings + rearings) in 3 min; settings: for effect on locomotor activity of C57B1/6 mice in open-field test, in words: i.p., doses that activate Balb/c mice; for Central activity (crossings) / Number of defecations / Peripheral activity (crossings) / Total activity / Vertical activity (rearings): M ± mx
Outline: as §1

[5] = concious rats, given 2 min prior calcium chloride 250-300 mg/kg i.v.
[6] = 10 min after compound injection
[7] = 15 min after compound injection
[8] = 20 min after compound injection
[9] = 30 min after compound injection
[10] = 40 min after compound injection
[11] = 50 min after compound injection

## CCOc1ccc2nc(SCCN(CC)CC)[nH]c2c1 [Compound IX, 2-[2-(Diethylamino)ethylthio]-5-ethoxybenz-imidazole]
[1]; [5]
  ED50: 1 mg/kg
[1]; concious rats
  effect on death from lethal ventricular fibrillation, in words: prevents the death of animals
[1]; rats, higher than lidocaine
  activity relative to lidocaine, calcium chloride arrhythmia: 7,5 folds
[1]; rats, higher than novocainamide
  activity relative to novocainamide, calcium chloride arrhythmia: 50 folds
[2]; 0.1 mg/kg i.p.
  Number of defecations: 0.1 ± 0.1
[2]; 0.1 mg/kg i.p., 0.1 mg/kg
  Peripheral activity (crossings): 15.1 ± 9.0
  Total activity: 15.1 ± 9.0
[2]; 1.0 mg/kg i.p., 1 mg/kg
  Peripheral activity (crossings): 39.8 ± 7.3
  Total activity: 39.8 ± 7.3
[2]; 5.0 mg/kg i.p.
  Peripheral activity (crossings): 44.1 ± 10.2
  Total activity: 44.1 ± 10.2
[2]; 10.0 mg/kg i.p., 10 mg/kg
  Peripheral activity (crossings): 36.8 ± 5.0
  Total activity: 36.8 ± 5.0
[2]; 20.0 mg/kg i.p.
  Peripheral activity (crossings): 17.8 ± 5.5
  Total activity: 17.8 ± 5.5
[2]
  effect on the behavior (locomotor activity) of Balb/c mice in open-field test, in words: able to activate the behavior of Balb/c mice
[3]
  antiarrhythmic effect, in words: pronounced antiarrhythmic effect
  effect on heart rate, in words: gradual bradycardia
  tolerability / side effects, in words: no side effects
[3]; after 3 min
  % ectopic contractions, change vs basal level: −44.8 ± 15.0 %
  Heart rate, change vs basal level: +3.2 ± 8.4 beats/min
[3]; after 5 min
  % ectopic contractions, change vs basal level: −43.8 ± 13.3 %
  Heart rate, change vs basal level: −5.2 ± 9.2 beats/min
[3]; after 10 min
  % ectopic contractions, change vs basal level: −59.4 ± 7.8 %
  Heart rate, change vs basal level: −14.6 ± 12.0 beats/min
[3]; after 20 min
  % ectopic contractions, change vs basal level: −41.4 ± 8.1 %
  Heart rate, change vs basal level: −16.4 ± 6.6 & beats/min
[3]; after 30 min
  % ectopic contractions, change vs basal level: −24.8 ± 5.8 %
  Heart rate, change vs basal level: −5.6 ± 2.1 & beats/min
[3]; after 60 min
  % ectopic contractions, change vs basal level: −17.2 ± 9.1%
  Heart rate, change vs basal level: −5.2 ± 4.1 & beats/min
[3]; concious dogs, 2,0 mg/kg i.v.
  duration of antiarrhythmic effect: 50 min
[4]
  effect on locomotor activity of C57B1/6 mice in open-field test, in words: without any changes in locomotor activity

## CN(C)CCSc1nc2ccccc2n1CCc1ccccc1 [Compound XX, 1-(β-Phenylethyl)-2-[2-(dimethylamino)ethylthio]-benzimidazole]
[1]; [5]
  ED50: 2.03 mg/kg
  Calcium chloride arrhythmia ED50 (mean effective dose): 2.0 mg/kg
[1]; concious rats
  effect on death from lethal ventricular fibrillation, in words: prevents the death of animals
[3]; 3 min after compound injection
  % of the ectopic contractions: 64% and 30% and 72% and 80%
  heart rate: 93 beats/min and 172 beats/min and 145 beats/min and 103 beats/min
[3]; 5 min after compound injection
  % of the ectopic contractions: 52% and 20% and 63% and 82%
  heart rate: 89 beats/min and 167 beats/min and 138 beats/min and 98 beats/min
[3]; [6]
  % of the ectopic contractions: 50% and 18% and 60% and 81%
  heart rate: 102 beats/min and 163 beats/min and 129 beats/min and 75 beats/min
[3]; [7]
  % of the ectopic contractions: 51% and 0% and 58% and 91%
  heart rate: 88 beats/min and 159 beats/min and 125 beats/min and 100 beats/min
[3]; [8]
  % of the ectopic contractions: 56% and 0% and 66% and 92%
  heart rate: 74 beats/min and 155 beats/min and 132 beats/min and 78 beats/min
[3]; [9]
  % of the ectopic contractions: 62% and 10% and 74% and 91%
  heart rate: 94 beats/min and 168 beats/min and 135 beats/min and 117 beats/min
[3]; [10]
  % of the ectopic contractions: 66% and 8% and 79% and 97%
  heart rate: 105 beats/min and 185 beats/min and 148 beats/min and 106 beats/min
[3]; [11]
  % of the ectopic contractions: 63% and 10% and 81% and 94%
  heart rate: 128 beats/min and 198 beats/min and 159 beats/min and 109 beats/min
[3]
  antiarrhythmic effect, in words: pronounced antiarrhythmic effect
  effect on heart rate, in words: pronounced bradycardia
  tolerability / side effects, in words: well tolerated by the animals; also recorded: no side effects

## CCOc1ccc2nc(SCCN3CCOCC3)[nH]c2c1 [XII, 2-[2-(Morpholino)ethylthio]-5-ethoxybenzimidazole]
[2]; 0.001 mg/kg i.p.
  Central activity (crossings): 1.6 ± 1.6
  Peripheral activity (crossings): 28.9 ± 8.8
  Total activity: 30.3 ± 9.4
[2]; 0.01 mg/kg i.p.
  Central activity (crossings): 2.6 ± 1.4
  Number of defecations: 3.1 ± 0.6
  Peripheral activity (crossings): 79.8 ± 9.3
  Total activity: 83.2 ± 11.3
  Vertical activity (rearings): 0.9 ± 0.6
[2]; 0.05 mg/kg i.p.
  Number of defecations: 2.0 ± 0.8
  Peripheral activity (crossings): 37.1 ± 6.7
  Total activity: 37.1 ± 6.7
[2]; 0.1 mg/kg i.p.
  Number of defecations: 2.4 ± 0.7
  Peripheral activity (crossings): 70.6 ± 10.6
  Total activity: 73.7 ± 12.7
[2]; 0.5 mg/kg i.p.
  Central activity (crossings): 2.9 ± 1.5
  Number of defecations: 1.6 ± 0.8
  Peripheral activity (crossings): 77.6 ± 14.2
  Total activity: 80.5 ± 15.7
[2]; 1.0 mg/kg i.p.
  Central activity (crossings): 0.5 ± 0.3
  Number of defecations: 2.8 ± 0.9
  Peripheral activity (crossings): 66.3 ± 11.1
  Total activity: 66.8 ± 11.4
[2]; 5.0 mg/kg i.p.
  Central activity (crossings): 2.3 ± 1.5
  Number of defecations: 0.8 ± 0.5
  Peripheral activity (crossings): 43.0 ± 4.4
  Total activity: 45.3 ± 5.9
[2]; 10.0 mg/kg i.p.
  Central activity (crossings): 0.9 ± 0.3
  Number of defecations: 2.0 ± 0.7
  Peripheral activity (crossings): 54.8 ± 8.3
  Total activity: 55.7 ± 8.6
[2]; 30.0 mg/kg i.p.
  Central activity (crossings): 1.1 ± 0.7
  Number of defecations: 4.5 ± 1.4
  Peripheral activity (crossings): 50.5 ± 7.9
  Total activity: 51.7 ± 8.7
  Vertical activity (rearings): 0.1 ± 0.1
[2]; 50.0 mg/kg i.p.
  Number of defecations: 1.6 ± 0.5
  Peripheral activity (crossings): 11.0 ± 1.6
  Total activity: 11.0 ± 1.6
[2]
  effect on the behavior (locomotor activity) of Balb/c mice in open-field test, in words: able to activate the behavior of Balb/c mice
[4]; 0.1 mg/kg i.p.
  Central activity (crossings): 18.3 ± 1.9
  Number of defecations: 1.3 ± 0.3
  Peripheral activity (crossings): 92.9 ± 5.4
  Total activity: 123.6 ± 8.4
  Vertical activity (rearings): 12.5 ± 1.1
[4]; 1.0 mg/kg i.p.
  Central activity (crossings): 20.4 ± 2.3
  Number of defecations: 0.5 ± 0.5
  Peripheral activity (crossings): 86.6 ± 4.3
  Total activity: 123.5 ± 8.4
  Vertical activity (rearings): 16.5 ± 1.8
[4]; 10.0 mg/kg i.p.
  Central activity (crossings): 36.0 ± 4.9
  Number of defecations: 0.6 ± 0.6
  Peripheral activity (crossings): 86.6 ± 10.9
  Total activity: 140.2 ± 19.0
  Vertical activity (rearings): 17.6 ± 3.2
[4]; 20.0 mg/kg i.p.
  Central activity (crossings): 23.4 ± 4.9
  Number of defecations: 1.8 ± 0.6
  Peripheral activity (crossings): 86.4 ± 4.0
  Total activity: 127.2 ± 11.6
  Vertical activity (rearings): 17.4 ± 2.7
[4]; 30.0 mg/kg i.p.
  Central activity (crossings): 26.3 ± 10.2
  Number of defecations: 0.1 ± 0.1
  Peripheral activity (crossings): 53.0 ± 5.7
  Total activity: 87.9 ± 17.5
  Vertical activity (rearings): 8.3 ± 4.6
[4]; 50.0 mg/kg i.p.
  Central activity (crossings): 13.9 ± 5.3
  Number of defecations: 0.5 ± 0.3
  Peripheral activity (crossings): 67.1 ± 11.9
  Total activity: 90.1 ± 19.8
  Vertical activity (rearings): 9.1 ± 2.6
[4]
  effect on locomotor activity of C57B1/6 mice in open-field test, in words: without any changes in locomotor activity
